Measured values: US7601333B2, “Use of a tetrapeptide AcSDKP (SEQ ID No. 1) analog resistant to the angiotensin I converting enzyme for measuring glomerular filtration rate in a human or an animal and kit containing same” (Assistance Publique-Hopitaux de Paris, priority 2003, dated 2009)
Where “and” joins values, the source holds several entries; their conditions need not be identical. Equal values may be shown once. Residues, ends and D or L forms follow the SMILES beside them.

Tests used:
[1] = molecular target: T1, ACE present in mouse plasma (Mus musculus, UniProt P09470); conditions: cited from earlier work
T1 construct: host or cells: mouse plasma
T1 sequence (P09470 35-1237 limits assumed): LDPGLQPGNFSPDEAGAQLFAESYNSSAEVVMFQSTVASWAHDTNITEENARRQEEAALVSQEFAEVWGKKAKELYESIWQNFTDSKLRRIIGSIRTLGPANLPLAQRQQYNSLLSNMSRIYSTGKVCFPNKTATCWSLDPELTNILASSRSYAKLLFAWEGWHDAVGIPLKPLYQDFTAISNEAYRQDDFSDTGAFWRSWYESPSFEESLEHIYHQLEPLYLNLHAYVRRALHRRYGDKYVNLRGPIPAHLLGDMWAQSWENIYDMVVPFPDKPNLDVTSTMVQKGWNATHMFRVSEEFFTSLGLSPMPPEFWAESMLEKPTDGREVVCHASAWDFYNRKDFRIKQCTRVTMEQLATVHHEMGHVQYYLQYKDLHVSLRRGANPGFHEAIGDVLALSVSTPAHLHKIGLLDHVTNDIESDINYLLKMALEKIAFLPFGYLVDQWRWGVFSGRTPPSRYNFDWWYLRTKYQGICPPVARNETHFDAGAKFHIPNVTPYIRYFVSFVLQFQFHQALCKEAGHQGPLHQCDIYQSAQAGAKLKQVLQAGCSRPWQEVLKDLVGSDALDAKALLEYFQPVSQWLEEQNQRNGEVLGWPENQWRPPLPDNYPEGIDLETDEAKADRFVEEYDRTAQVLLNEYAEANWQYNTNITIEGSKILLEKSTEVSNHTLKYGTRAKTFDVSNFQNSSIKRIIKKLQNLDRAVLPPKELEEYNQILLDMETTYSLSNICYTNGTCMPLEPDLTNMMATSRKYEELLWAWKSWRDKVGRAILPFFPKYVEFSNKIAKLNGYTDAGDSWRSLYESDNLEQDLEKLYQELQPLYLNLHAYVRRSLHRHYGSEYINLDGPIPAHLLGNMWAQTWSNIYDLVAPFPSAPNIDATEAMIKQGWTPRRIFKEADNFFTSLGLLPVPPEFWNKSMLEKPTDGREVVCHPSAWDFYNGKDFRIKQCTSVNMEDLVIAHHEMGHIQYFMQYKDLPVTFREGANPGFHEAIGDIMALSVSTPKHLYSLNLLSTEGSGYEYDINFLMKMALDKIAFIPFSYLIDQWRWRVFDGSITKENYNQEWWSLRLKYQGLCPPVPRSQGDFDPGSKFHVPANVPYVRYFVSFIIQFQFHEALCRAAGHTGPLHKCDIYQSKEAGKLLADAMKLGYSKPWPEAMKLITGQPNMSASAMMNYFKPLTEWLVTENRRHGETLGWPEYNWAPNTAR

[2] = cited from earlier work
[3] = Plasma and urine pharmacokinetics after I.V. bolus in rats; conditions: for % excreted: urine; for Renal clearance: summarizing table, i.v. bolus
[4] = Group 3, i.v. bolus, without captopril, 24-48 h, single rats
[5] = Group 3, i.v. bolus, without captopril, mean
[6] = Group 3, i.v. bolus, without captopril, single rats
[7] = Group 4, i.v. bolus, with captopril, 4-24 h, single rats
[8] = Group 4, i.v. bolus, with captopril, 48-72 h, single rats
[9] = Group 4, i.v. bolus, with captopril, mean
[10] = Group 4, i.v. bolus, with captopril, single rats

Compound: CC(=O)N[C@@H](CO)C(=O)N[C@@H](CC(=O)O)C(=O)N[C@@H](CCCCN)C(=O)N1CCC[C@H]1C(N)=O [AcSDKP-NH2, N-acetyl-Ser-Asp-Lys-Pro-NH2] (Ac-SDKP-NH2)
- degradation by the ACE present in mouse plasma [1]: not degraded
- modification after 3 freezing-thawing cycles [2]: no adverse modification
- Q in urine ([3]; Group 3, i.v. bolus, without captopril, 0-2 h, single rats): 175685.1 ng and 0.0 ng (5×)
- Q in urine ([3]; Group 3, i.v. bolus, without captopril, 2-4 h, single rats): 0.0 ng (3×) and 180325.8 ng and 141210.2 ng and 290581.1 ng
- Q in urine ([3]; Group 3, i.v. bolus, without captopril, 4-7 h, single rats): 84030.9 ng and 23548.7 ng and 0.0 ng (4×)
- Q in urine ([3]; Group 3, i.v. bolus, without captopril, 7-24 h, single rats): 16014.8 ng and 8570.5 ng and 211497.2 ng and 41898.9 ng and 29223.7 ng and 159391.7 ng
- Concentration in urine [3, 4]: ILQ
- Q in urine [3, 4]: 513.0 ng and 1304.8 ng and 47218.0 ng and 603.6 ng and ILQ and 3161.4 ng
- Concentration in plasma ([3]; Group 3, i.v. bolus, without captopril, 5 min, single rats): 2581 ng/mL and 3139 ng/mL and 2865 ng/mL and 2491 ng/mL and 3250 ng/mL and 2663 ng/mL
- Concentration in plasma ([3]; Group 3, i.v. bolus, without captopril, 10 min, single rats): 1611 ng/mL and 2288 ng/mL and 2425 ng/mL and 2152 ng/mL and 2918 ng/mL and 2595 ng/mL
- Concentration in plasma ([3]; Group 3, i.v. bolus, without captopril, 15 min, single rats): 1655 ng/mL and 985 ng/mL and 2204 ng/mL and 1796 ng/mL and 1930 ng/mL and 1750 ng/mL
- Concentration in plasma ([3]; Group 3, i.v. bolus, without captopril, 30 min, single rats): 748 ng/mL and 880 ng/mL and 1317 ng/mL and 1329 ng/mL and 930 ng/mL and 867 ng/mL
- Concentration in plasma ([3]; Group 3, i.v. bolus, without captopril, 60 min, single rats): 233 ng/mL and 443 ng/mL and 598 ng/mL and 545 ng/mL and 416 ng/mL and 463 ng/mL
- Concentration in plasma ([3]; Group 3, i.v. bolus, without captopril, 120 min, single rats): 47 ng/mL and 45 ng/mL and 163 ng/mL and 118 ng/mL and 48 ng/mL and 69 ng/mL
- Concentration in plasma ([3]; Group 3, i.v. bolus, without captopril, 240 min, single rats): ILQ (2×) and 3 ng/ml and 5 ng/ml and 2 ng/ml and 4 ng/ml
- Concentration in plasma ([3]; Group 3, i.v. bolus, without captopril, 300 min, single rats): ILQ
- CLR [3, 5]: 7.59 mL/min/kg
- Ctotal dose/AUC [3, 5]: 8.08 mL/min/kg
- AUC0-INF [3, 6]: 87407 ng·min/mL and 125025 ng·min/mL and 111894 ng·min/mL and 101003 ng·min/mL and 96190 ng·min/mL
- CLR [3, 6]: 11.8 mL/min/kg and 7.7 mL/min/kg and 6.4 mL/min/kg and 4.9 mL/min/kg and 9.8 mL/min/kg and 5.0 mL/min/kg
- Ctotal dose/AUC [3, 6]: 11.3 mL/min/kg and 9 mL/min/kg and 6.2 mL/min/kg and 6.5 mL/min/kg and 8.1 mL/min/kg and 7.2 mL/min/kg
- Q in urine total [3, 6]: 276243.9 ng and 213749.7 ng and 258715.2 ng and 183712.7 ng and 319804.8 ng and 162553.1 ng
- Vd [3, 6]: 0.27 L/kg and 0.22 L/kg and 0.253 L/kg and 0.256 L/kg and 0.261 L/kg
- t½ [3, 6]: 20.7 min (2×) and 24.5 min and 26.8 min and 21.8 min and 25.1 min
- % excreted [3, 5]: 92.67%
- % excreted [3, 6]: 120.7%
- Concentration in urine [3, 7]: 11032 ng/mL
- Q in urine [3, 7]: 208504.2 ng and 144361.5 ng and 286064.8 ng and 274157.3 ng and 353834.5 ng
- Q in urine ([3]; Group 4, i.v. bolus, with captopril, 24-48 h, single rats): 10737.7 ng and 2183.9 ng and 16360.4 ng and 10087.6 ng and 6728.5 ng
- Concentration in urine [3, 8]: ILQ and 11 ng/ml
- Q in urine [3, 8]: 758.4 ng and ILQ and 619.3 ng and 4008.3 ng and 0.0 ng
- Concentration in plasma ([3]; Group 4, i.v. bolus, with captopril, 5 min, single rats): 3623 ng/mL and 3115 ng/mL and 4099 ng/mL and 2863 ng/mL and 3280 ng/mL
- Concentration in plasma ([3]; Group 4, i.v. bolus, with captopril, 10 min, single rats): 1750 ng/mL and 3571 ng/mL and 3075 ng/mL and 2682 ng/mL and 2346 ng/mL
- Concentration in plasma ([3]; Group 4, i.v. bolus, with captopril, 15 min, mean): 1874 ng/mL
- Concentration in plasma ([3]; Group 4, i.v. bolus, with captopril, 15 min, single rats): 1432 ng/mL and 1978 ng/mL and 2363 ng/mL and 1635 ng/mL and 1960 ng/mL
- Concentration in plasma ([3]; Group 4, i.v. bolus, with captopril, 30 min, mean): 1213 ng/mL
- Concentration in plasma ([3]; Group 4, i.v. bolus, with captopril, 30 min, single rats): 1128 ng/mL and 891 ng/mL and 1173 ng/mL and 889 ng/mL and 1986 ng/mL
- Concentration in plasma ([3]; Group 4, i.v. bolus, with captopril, 60 min, mean): 453 ng/mL
- Concentration in plasma ([3]; Group 4, i.v. bolus, with captopril, 60 min, single rats): 312 ng/mL and 338 ng/mL and 346 ng/mL and 357 ng/mL and 910 ng/mL
- Concentration in plasma ([3]; Group 4, i.v. bolus, with captopril, 120 min, mean): 74 ng/mL
- Concentration in plasma ([3]; Group 4, i.v. bolus, with captopril, 120 min, single rats): 31 ng/mL and 63 ng/mL and 64 ng/mL and 73 ng/mL and 140 ng/mL
- Concentration in plasma ([3]; Group 4, i.v. bolus, with captopril, 180 min, mean): 15 ng/mL
- Concentration in plasma ([3]; Group 4, i.v. bolus, with captopril, 180 min, single rats): 7 ng/mL and 11 ng/mL and 18 ng/mL and 16 ng/mL and 23 ng/mL
- Concentration in plasma ([3]; Group 4, i.v. bolus, with captopril, 240 min, single rats): 2 ng/ml (2×) and 3 ng/ml (3×)
- Concentration in plasma ([3]; Group 4, i.v. bolus, with captopril, 300 min, mean): 0 ng/mL
- Concentration in plasma ([3]; Group 4, i.v. bolus, with captopril, 300 min, single rats): ILQ (4×) and 0 ng/ml
- AUC0-INF [3, 9]: 110097 ng·min/mL
- CLR [3, 9]: 8.03 mL/min/kg
- Ctotal dose/AUC [3, 9]: 8.06 mL/min/kg
- Vd [3, 9]: 0.269 L/kg
- AUC0-INF [3, 10]: 100543 ng·min/mL and 114983 ng·min/mL and 92278 ng·min/mL and 153339 ng·min/mL
- CLR [3, 10]: 8.2 mL/min/kg and 4.7 mL/min/kg and 9.1 mL/min/kg and 10.6 mL/min/kg and 7.6 mL/min/kg
- Ctotal dose/AUC [3, 10]: 9.0 mL/min/kg and 6.9 mL/min/kg and 7.8 mL/min/kg and 9.4 mL/min/kg and 7.2 mL/min/kg
- Q in urine total [3, 10]: 220000 ng and 146545.0 ng and 303045 ng and 288253 ng and 360563 ng
- Vd [3, 10]: 0.23 L/kg and 0.26 L/kg and 0.327 L/kg and 0.242 L/kg
- t½ [3, 10]: 21.9 min and 23.0 min and 24.1 min
- % excreted [3, 9]: 98.76%
- GFR measured after administration, difference between the groups of rats ([3]; rats): does not differ significantly
- degradation in vivo by ACE or other enzyme systems ([3]; rats): not degraded in vivo
- excretion in the urine ([3]; rats): completely excreted in the urine without being reabsorbed or secreted
- mean AUC of group without captopril less than group with captopril ([3]; rats, mean injected dose 11% higher with captopril): approximately 10%
- Renal clearance ([3]; rats, with captopril): 8.0 mL/min/kg
- Renal clearance ([3]; rats, without captopril): 7.6 mL/min/kg
